Test results taken from patent US20190055576A1, “USE OF HERBICIDE-TOLERANT PROTEIN” (BEIJING DABEINONG TECHNOLOGY GROUP CO., LTD., priority 2016, published 2019).

Experiments:
Format in all cases: in vivo
[1] = test system: transgenic soybean plants (Gm cytoplasmic/chloroplastic ALT-1-01, ALT-2-01, ALT-3-01); assay: Glyphosate tolerance of transgenic soybean plants (ALT + EPSPS), herbicide damage rate; details: 840 g ae/ha, 1-fold field concentration, 14 days after spraying
From the text: (§1) The herbicide tolerance effects of Gm cytoplasmic ALT-1-01 soybean plants, Gm chloroplastic ALT-1-01 soybean plants, Gm cytoplasmic ALT-2-01 soybean plants, Gm chloroplastic ALT-2-01 soybean plants, Gm cytoplasmic ALT-3-01 soybean plants, Gm chloroplastic ALT-3-01 soybean plants and wild-type soybean plants on glyphosate were detected (at seedling stage), respectively.
(§2) 2 strains from Gm cytoplasmic ALT-1-01 soybean plants, Gm chloroplastic ALT-1-01 soybean plants, Gm cytoplasmic ALT-2-01 soybean plants, Gm chloroplastic ALT-2-01 soybean plants, Gm cytoplasmic ALT-3-01 soybean plants, Gm chloroplastic ALT-3-01 soybean plants and wild-type soybean plants were respectively taken each, and 10-15 plants were selected from each strain and tested. The plants above were sprayed with glyphosate (840 g ae/ha, 1-fold field concentration) and a blank solvent (water). The herbicide damage rate was measured for each plant according to the phytotoxicity symptoms 14 days after spraying (14 DAT): herbicide damage rate (%)=Σ(number of damaged plants at the same level×level number)/(total number of plants×highest level).

[2] = test system: wild-type soybean plants (CK1); assay: Glyphosate tolerance of wild-type soybean plants, herbicide damage rate; details: 840 g ae/ha, 1-fold field concentration, 14 days after spraying
From the text: as §1, §2

[3] = test system: transgenic Arabidopsis thaliana T1 plants (ALT-1-01, ALT-2-01, ALT-3-01; cytoplasmic or chloroplastic); assay: Herbicide tolerance of transgenic Arabidopsis thaliana T1 plants expressing thifensulfuron hydrolase, resistance classes counted after spraying; details: for Highly resistant (number of plants with growth status consistent with blank solvent group) / Moderately resistant (number of plants with bolting height less than 1/2 of blank solvent group) / Non-resistant (number of plants dead) / Poorly resistant (number of plants still not capable of bolting): 1-fold field concentration (g ai/ha: Sulfometuron-methyl 30, iodosulfuron-methyl 10, mesosulfuron 14, oxasulfuron 60), 14 days after spraying; for ability of the transformed plants to degrade the herbicide: all the transformed Arabidopsis thaliana T1 plants (ALT-1, ALT-2 and ALT-3), 1-fold field concentration
From the text: (§3) T1 transformants were initially selected from the background of untransformed seeds using a glufosinate selection scheme. About 40000 T1 seeds were screened, and 380 T1 positive transformants (PAT gene) were identified with a transformation efficiency of about 0.95%. The plants that were transformed with the recombinant expression vector DBN100632 were Arabidopsis thaliana plants having an ALT-1-01 nucleotide sequence located in the cytoplasm introduced (At cytoplasmic ALT-1-01), and the plants that were transformed with the recombinant expression vector DBN100631 were Arabidopsis thaliana plants having an ALT-1-01 nucleotide sequence located in the chloroplast introduced (At chloroplastic ALT-1-01); the plants that were transformed with the recombinant expression vector DBN100634 were Arabidopsis thaliana plants having an ALT-2-01 nucleotide sequence located in the cytoplasm introduced (At cytoplasmic ALT-2-01), and the plants that were transformed with the recombinant expression vector DBN100633 were Arabidopsis thaliana plants having an ALT-2-01 nucleotide sequence located in the chloroplast introduced (At chloroplastic ALT-2-01); and the plants that were transformed with the recombinant expression vector DBN100636 were Arabidopsis thaliana plants having an ALT-3-01 nucleotide sequence located in the cytoplasm introduced (At cytoplasmic ALT-3-01), and the plants that were transformed with the recombinant expression vector DBN100635 were Arabidopsis thaliana plants having an ALT-3-01 nucleotide sequence located in the chloroplast introduced (At chloroplastic ALT-3-01). The herbicide tolerance effects of At cytoplasmic ALT-1-01 T1 plants, At chloroplastic ALT-1-01 T1 plants, At cytoplasmic ALT-2-01 T1 plants, At chloroplastic ALT-2-01 T1 plants, At cytoplasmic ALT-3-01 T1 plants, At chloroplastic ALT-3-01 T1 plants and wild-type Arabidopsis thaliana plants on Sulfometuron-methyl were detected (14 days after sowing), respectively.
(§4) At cytoplasmic ALT-1-01 T1 plants, At chloroplastic ALT-1-01 T1 plants, At cytoplasmic ALT-2-01 T1 plants, At chloroplastic ALT-2-01 T1 plants, At cytoplasmic ALT-3-01 T1 plants, At chloroplastic ALT-3-01 T1 plants and wild-type Arabidopsis thaliana plants were sprayed with Sulfometuron-methyl (30 g ai/ha, 1-fold field concentration) and a blank solvent (water), respectively. Plants were counted for the resistance situations 14 days after spraying: those having a consistent growth status with the blank solvent (water) group after 14 days were classified as highly resistant plants, those having a bolting height less than ½ of that of the blank solvent (water) group after 14 days were classified as moderately resistant plants, those still not capable of bolting after 14 days were classified as poorly resistant plants, and those dead after 14 days were classified as non-resistant plants. Since each Arabidopsis thaliana T1 plant was an independent transformation event, a significant difference in individual T1 responses could be expected at a given dose.
(§5) At cytoplasmic ALT-1-01 T1 plants, At chloroplastic ALT-1-01 T1 plants, At cytoplasmic ALT-2-01 T1 plants, At chloroplastic ALT-2-01 T1 plants, At cytoplasmic ALT-3-01 T1 plants, At chloroplastic ALT-3-01 T1 plants and wild-type Arabidopsis thaliana plants in Example 4 were sprayed with iodosulfuron-methyl (10 g ai/ha, 1-fold field concentration), mesosulfuron (14 g ai/ha, 1-fold field concentration) and oxasulfuron (60 g ai/ha, 1-fold field concentration), respectively, in addition to Sulfometuron-methyl (30 g ai/ha, 1-fold field concentration) and the blank solvent (water). […]

[4] = test system: wild-type Arabidopsis thaliana plants; assay: Herbicide tolerance of wild-type Arabidopsis thaliana plants, resistance classes counted after spraying; details: 1-fold field concentration (g ai/ha: Sulfometuron-methyl 30, iodosulfuron-methyl 10, mesosulfuron 14, oxasulfuron 60), 14 days after spraying
From the text: as §3, §4, §5

[5] = At chloroplastic ALT-1-01 T1 plants
[6] = At chloroplastic ALT-2-01 T1 plants
[7] = At chloroplastic ALT-3-01 T1 plants
[8] = At cytoplasmic ALT-1-01 T1 plants
[9] = At cytoplasmic ALT-2-01 T1 plants
[10] = At cytoplasmic ALT-3-01 T1 plants

O=C(O)CNCP(=O)(O)O [glyphosate, N-phosphonomethylglycine]
~0%: glyphosate herbicide damage rate ([1]; Gm chloroplastic ALT-1-01 soybean plants) | glyphosate herbicide damage rate ([1]; Gm chloroplastic ALT-2-01 soybean plants) | glyphosate herbicide damage rate ([1]; Gm chloroplastic ALT-3-01 soybean plants) | glyphosate herbicide damage rate ([1]; Gm cytoplasmic ALT-1-01 soybean plants) | glyphosate herbicide damage rate ([1]; Gm cytoplasmic ALT-2-01 soybean plants) | glyphosate herbicide damage rate ([1]; Gm cytoplasmic ALT-3-01 soybean plants)
not less than 90%: glyphosate herbicide damage rate [2]

COC(=O)c1ccc(I)cc1S(=O)(=O)NC(=O)Nc1nc(C)nc(OC)n1 [iodosulfuron-methyl]
29: Non-resistant (number of plants dead) [3, 8] | Non-resistant (number of plants dead) [4]
31: Non-resistant (number of plants dead) [3, 6]
0: Highly resistant (number of plants with growth status consistent with blank solvent group) [3, 5] | Moderately resistant (number of plants with bolting height less than 1/2 of blank solvent group) [3, 5] | Poorly resistant (number of plants still not capable of bolting) [3, 5] | Highly resistant (number of plants with growth status consistent with blank solvent group) [3, 6] | Moderately resistant (number of plants with bolting height less than 1/2 of blank solvent group) [3, 6] | Poorly resistant (number of plants still not capable of bolting) [3, 6] | Highly resistant (number of plants with growth status consistent with blank solvent group) [3, 7] | Moderately resistant (number of plants with bolting height less than 1/2 of blank solvent group) [3, 7] | Poorly resistant (number of plants still not capable of bolting) [3, 7] | Highly resistant (number of plants with growth status consistent with blank solvent group) [3, 8] | Moderately resistant (number of plants with bolting height less than 1/2 of blank solvent group) [3, 8] | Poorly resistant (number of plants still not capable of bolting) [3, 8] | Highly resistant (number of plants with growth status consistent with blank solvent group) [3, 9] | Moderately resistant (number of plants with bolting height less than 1/2 of blank solvent group) [3, 9] | Poorly resistant (number of plants still not capable of bolting) [3, 9] | Highly resistant (number of plants with growth status consistent with blank solvent group) [3, 10] | Moderately resistant (number of plants with bolting height less than 1/2 of blank solvent group) [3, 10] | Poorly resistant (number of plants still not capable of bolting) [3, 10] | Highly resistant (number of plants with growth status consistent with blank solvent group) [4] | Moderately resistant (number of plants with bolting height less than 1/2 of blank solvent group) [4] | Poorly resistant (number of plants still not capable of bolting) [4]
did not exhibit the ability to degrade: ability of the transformed plants to degrade the herbicide [3]
32: Non-resistant (number of plants dead) [3, 7]
30: Non-resistant (number of plants dead) [3, 5] | Non-resistant (number of plants dead) [3, 9] | Non-resistant (number of plants dead) [3, 10]

COc1cc(OC)nc(NC(=O)NS(=O)(=O)c2cc(CNS(C)(=O)=O)ccc2C(=O)O)n1 [mesosulfuron]
29: Non-resistant (number of plants dead) [3, 8]
30: Non-resistant (number of plants dead) [3, 6] | Non-resistant (number of plants dead) [3, 10]
32: Non-resistant (number of plants dead) [3, 5] | Non-resistant (number of plants dead) [3, 7] | Non-resistant (number of plants dead) [3, 9]
0: Highly resistant (number of plants with growth status consistent with blank solvent group) [3, 5] | Moderately resistant (number of plants with bolting height less than 1/2 of blank solvent group) [3, 5] | Poorly resistant (number of plants still not capable of bolting) [3, 5] | Highly resistant (number of plants with growth status consistent with blank solvent group) [3, 6] | Moderately resistant (number of plants with bolting height less than 1/2 of blank solvent group) [3, 6] | Poorly resistant (number of plants still not capable of bolting) [3, 6] | Highly resistant (number of plants with growth status consistent with blank solvent group) [3, 7] | Moderately resistant (number of plants with bolting height less than 1/2 of blank solvent group) [3, 7] | Poorly resistant (number of plants still not capable of bolting) [3, 7] | Highly resistant (number of plants with growth status consistent with blank solvent group) [3, 8] | Moderately resistant (number of plants with bolting height less than 1/2 of blank solvent group) [3, 8] | Poorly resistant (number of plants still not capable of bolting) [3, 8] | Highly resistant (number of plants with growth status consistent with blank solvent group) [3, 9] | Moderately resistant (number of plants with bolting height less than 1/2 of blank solvent group) [3, 9] | Poorly resistant (number of plants still not capable of bolting) [3, 9] | Highly resistant (number of plants with growth status consistent with blank solvent group) [3, 10] | Moderately resistant (number of plants with bolting height less than 1/2 of blank solvent group) [3, 10] | Poorly resistant (number of plants still not capable of bolting) [3, 10] | Highly resistant (number of plants with growth status consistent with blank solvent group) [4] | Moderately resistant (number of plants with bolting height less than 1/2 of blank solvent group) [4] | Poorly resistant (number of plants still not capable of bolting) [4]
did not exhibit the ability to degrade: ability of the transformed plants to degrade the herbicide [3]
28: Non-resistant (number of plants dead) [4]

Cc1cc(C)nc(NC(=O)NS(=O)(=O)c2ccccc2C(=O)OC2COC2)n1 [oxasulfuron]
28: Non-resistant (number of plants dead) [3, 8] | Non-resistant (number of plants dead) [4]
31: Non-resistant (number of plants dead) [3, 7]
30: Non-resistant (number of plants dead) [3, 5] | Non-resistant (number of plants dead) [3, 6] | Non-resistant (number of plants dead) [3, 9] | Non-resistant (number of plants dead) [3, 10]
did not exhibit the ability to degrade: ability of the transformed plants to degrade the herbicide [3]
0: Highly resistant (number of plants with growth status consistent with blank solvent group) [3, 5] | Moderately resistant (number of plants with bolting height less than 1/2 of blank solvent group) [3, 5] | Poorly resistant (number of plants still not capable of bolting) [3, 5] | Highly resistant (number of plants with growth status consistent with blank solvent group) [3, 6] | Moderately resistant (number of plants with bolting height less than 1/2 of blank solvent group) [3, 6] | Poorly resistant (number of plants still not capable of bolting) [3, 6] | Highly resistant (number of plants with growth status consistent with blank solvent group) [3, 7] | Moderately resistant (number of plants with bolting height less than 1/2 of blank solvent group) [3, 7] | Poorly resistant (number of plants still not capable of bolting) [3, 7] | Highly resistant (number of plants with growth status consistent with blank solvent group) [3, 8] | Moderately resistant (number of plants with bolting height less than 1/2 of blank solvent group) [3, 8] | Poorly resistant (number of plants still not capable of bolting) [3, 8] | Highly resistant (number of plants with growth status consistent with blank solvent group) [3, 9] | Moderately resistant (number of plants with bolting height less than 1/2 of blank solvent group) [3, 9] | Poorly resistant (number of plants still not capable of bolting) [3, 9] | Highly resistant (number of plants with growth status consistent with blank solvent group) [3, 10] | Moderately resistant (number of plants with bolting height less than 1/2 of blank solvent group) [3, 10] | Poorly resistant (number of plants still not capable of bolting) [3, 10] | Highly resistant (number of plants with growth status consistent with blank solvent group) [4] | Moderately resistant (number of plants with bolting height less than 1/2 of blank solvent group) [4] | Poorly resistant (number of plants still not capable of bolting) [4]
